# Patent US20110294732A1, “ERYTHROPOLETIN COMPLEMENTATION OR REPLACEMENT” (Universite De Strasbourg, priority 2007, published 2011)
# “And” between values parts separate entries of the source, which are not always exact repeats. Equal values may be shown once. “Also recorded” adds a separate entry of the source.
# Key:
# RBCs = assay: Lysis of RBCs after in vitro incubation with effector; assay type: cell-based, human, mouse and pig
# [1] = Blood counts of piglets after intravenous injection; assay type: in vivo; conditions: iv 1 g/kg
# From the text: Blood from 2 piglets that received ITPP (1 g/kg body weight) was collected before injection, 2 hrs after, and daily over a period of 14 days after injection, in order to assess any differences in the blood counts of treated and non-treated piglets.
# (§1) Blood was taken from the heart of the dead animals for determination of blood counts as well as the amount of sodium, potassium and calcium in the sera. All numbers of blood cells (hematocrit, white blood cells etc.) were halved. The amount of potassium and calcium was normal, while sodium was doubled (before injection: 120-140 mmol/L; after injection: 245 mmol/L). Apparently, the large amount of sodium in that form of ITPP (6 Na^+/molecule) caused the death of the animals. It appears that up to 1 g ITPP per kg body weight can be injected intravenously, (if injected slowly) without harmful effects for the animals. […] A second piglet was also injected with ITPP at the 1 g/kg concentration, after 2 piglets had died after iv injection of 1.2 g ITPP (or even more) per kg body weight. […] Starting with day 3 after injection of the allosteric effector, the number of reticulocytes increased by about 3% for a period of 14 days.
# whole blood = assay: In vitro P50 of whole blood after incubation with effector, mouse; assay type: cell-based
# Description: For the in vitro experiments, ITPP was dissolved in deionized water, pH was adjusted to pH 7 and, for incubation with whole blood, the osmolarity of the ITPP solutions was adjusted with glucose to 270-297 mOsM. Mixtures of hemoglobin and ITPP were measured with a HEMOX analyzer (PD Marketing, London) immediately after mixing. Red blood cells were incubated with ITPP for 1 hour at 37° C. Following incubation, the cells were washed 3 times with Bis-Tris-buffer (pH=7.0) and then used for P50 measurement.
# ITPP was tested along with a cholesteroyl derivative (here designated as kf96) (both at 60 mM) as effectors for P50 shifts in whole blood of three species: human, mouse and pig. As usual, pHs for the compound-solutions were adjusted to ca. 7.0, osmolarities for both solutions were determined (325-373 mOsM) prior to treatment with the effectors, and whole blood volumes at 1:1 ratios were incubated.
# circulating RBC = assay: P50 shift of circulating RBC after oral administration in drinking water; assay type: in vivo, C57BL/6 mice
# Description: In experiments conducted in vivo in which ITPP was administered orally, ITPP was dissolved in drinking (not deionized) water at a 20 g/L-concentration (=27 mM, pH 7.0) and offered for drinking ad libitum. A significant shift of the P50 value of circulating RBCs was observed.
# (§2) Twelve C57BL/6 mice drank ITPP over 4 days (about 25 ml/24 hrs). Seven Control mice drank either pure water (three mice), or a solution of IHP (inositol hexaphosphate without the internal pyrophosphate rings) at the same concentration and pH as ITPP (4 mice). […] Blood was collected from the tail vein of the 12 C57BL/6 mice on day 0 (before treatment started), 1, 2, 4, 6, 7, 8, 10, 11 and 12, in order to measure P50 values. […] Oral application of ITPP caused significant right shifts of P50 (up to 31%) in mice.
# The 12 mice were observed over 12 days, the P50 values of their circulating RBC were measured almost daily. […] It appears that all mice ingesting the aqueous solution of ITPP present a shift of the P50 value of their circulating RBC, albeit with individual differences. FIG. 8 illustrates the individual differences in the P50 shift induced in the mice by ingestion of the aqueous solution of ITPP.
# Effort capacity test = assay type: in vivo, normal wild-type mice; conditions: normal animals, maximum
# From the text: The effort capacity of normal animals may be enhanced by up to 100% by ITPP administration, since more oxygen can be delivered to the working muscle.
# circulating RBCs = assay: P50 shift of circulating RBCs after ip injection; assay type: in vivo, C57B1/6 mice; conditions: for P50 Shift %, 2 h, Mean +/- SD / P50 Shift %, 24 h, Mean +/- SD / P50 Shift %, 2 h / P50 Shift %, 24 h: ip; for P50 Shift %, 2 h, Mean +/- SD / P50 Shift %, 24 h, Mean +/- SD: 5 animals; for P50 Shift %, 2 h / P50 Shift %, 24 h: single animal
# Description: Blood from C57B1/6 mice collected 2 hrs and 1 day after injection of 45, 60, 120 and 150 mM solutions of ITPP was measured for P50-shifts as reported. […] No animal died or seemed to suffer from the compound.
# [2] = Blood counts of mice after oral ingestion; assay type: in vivo; conditions: single mouse, oral in water for 4 days; day 0 count 8.9-11.8
# [3] = Tolerability of oral treatment in mice; assay type: in vivo, C57BL/6 mice; conditions: drinking over 4 days
# Description: as §2
# [4] = Tolerability and toxicity of intravenous injection in piglets; assay type: in vivo
# Description: (§3) An in vivo experiment was performed on one 8 week-old normal piglet (body weight: 17 kg). The piglet was anesthesized with 5% Isoflurane, 0.7 L/min N2O and 2.0 L/min O2 for 20-30 minutes, when ITPP was injected, or blood was taken from the ear vein, respectively. The compound injected intravenous at a concentration of 27 g ITPP/100 ml water (volume injected: 63 ml, pH 6.5, containing 17 g ITPP=1 g/l kg body weight) was not harmful to the animal, when injected into the piglet's ear vein over at least 10 minutes.
# (§4) Intravenous injection of 1 g ITPP/kg body weight caused a significant right shift of the P50-value (up to 20%) in porcine RBCs. An almost saturated ITPP solution, pH 6.7, was injected intravenously into two piglets (both of ca. 18 kg body weight) (27 g ITPP/100 ml=1.5 g/kg body weight) over 20 minutes.
# as §1
# porcine RBCs = assay: P50 shift of porcine RBCs after intravenous injection; assay type: in vivo, piglet; conditions: intravenous 1 g ITPP/kg body weight
# Description: as §3, §4
smiles,measurement,setting,value
"O=P1(O)OC2C3OP(=O)(O)OP(=O)(O)OC3C3OP(=O)(O)OP(=O)(O)OC3C2OP(=O)(O)O1 (stereo not drawn) [ITPP, inositol-tripyrophosphate]",lysis of RBCs,RBCs,never occurred; also recorded: no lysis of RBCs was observed
same,number of other cells such as white blood cells,[1],No major differences
same,"reticulocytes, increasing numbers","[1]; 5-14 days after injection, day 14",up to 3.0%
same,reticulocyte population after decrease,"[1]; first 3 days (24 to 72 hrs) after injection, from 1.4% / 1.5%",0.5%
same,hematocrit and number of RBCs,[1]; first days after injection,slight decrease; also recorded: decrease in hematocrit was observed
same,pathological changes of the blood counts,[1]; injected slowly,did not show any pathological changes
same,increase of the number of reticulocytes,"[1]; starting with day 3, for a period of 14 days",about 3%
same,"P50 increase, % (ITPP)","whole blood; mouse whole blood, 60 mM",29%
same,P50 mm Hg effector ITPP,"whole blood; mouse whole blood, 60 mM, control 36.7",47.4 mm Hg
same,shift of the P50 value to higher PO2,whole blood; murine whole blood,up to 40%
same,time for P50 values to return to control values,circulating RBC; ingestion stopped on day 4,≤ 12 days
same,time lag before the maximum P50 shift is attained,"circulating RBC; oral, 27 mM",about 48 hrs
same,right shift of P50,"circulating RBC; oral, 20 g/L (27 mM) in drinking water over 4 days",up to 31%
same,"P50 day 7, %","circulating RBC; single mouse, oral in water for 4 days, day 7",13% and 14% and 20% (2×) and 16% (2×) and 15% and 7% and 9%
same,"P50 day 10, %","circulating RBC; single mouse, oral in water for 4 days, day 10",10% (3×) and 6% and 12% and 16% and 8% and 11% and 9%
same,enhancement of the effort capacity,Effort capacity test,up to 100%
same,time at which the P50 shift appears after inoculation,circulating RBCs; ip inoculation,2 h
same,"P50 Shift %, 2 h, Mean +/- SD",circulating RBCs; 45 mM,11.8 +/− 1.16%
same,"P50 Shift %, 24 h, Mean +/- SD",circulating RBCs; 45 mM,13.6 +/− 1.02%
same,"P50 Shift %, 2 h",circulating RBCs; 45 mM,10% and 13% (2×) and 12% and 11%
same,"P50 Shift %, 24 h",circulating RBCs; 45 mM,8%
same,"P50 Shift %, 2 h, Mean +/- SD",circulating RBCs; 60 mM,16.9 +/− 3.48%
same,"P50 Shift %, 24 h, Mean +/- SD",circulating RBCs; 60 mM,17.2 +/− 2.1%
same,"P50 Shift %, 2 h",circulating RBCs; 60 mM,12% and 14% and 17% and 21% and 20.5%
same,"P50 Shift %, 24 h",circulating RBCs; 60 mM,14% and 16% and 17% and 20% and 19%
same,"P50 Shift %, 2 h, Mean +/- SD",circulating RBCs; 120 mM,26.0 +/− 2.28%
same,"P50 Shift %, 24 h, Mean +/- SD",circulating RBCs; 120 mM,24.8 +/− 2.7%
same,"P50 Shift %, 2 h",circulating RBCs; 120 mM,28% and 29% and 24% and 26% and 23%
same,"P50 Shift %, 24 h",circulating RBCs; 120 mM,28% (2×) and 22% (2×) and 24%
same,"P50 Shift %, 2 h, Mean +/- SD",circulating RBCs; 150 mM,27.0 +/− 1.78%
same,"P50 Shift %, 24 h, Mean +/- SD",circulating RBCs; 150 mM,25.8 +/− 2.78%
same,"P50 Shift %, 2 h",circulating RBCs; 150 mM,26% (2×) and 28% and 30% and 25%
same,"P50 Shift %, 24 h",circulating RBCs; 150 mM,25% and 26% and 31% and 24% and 23%
same,RBC × 10^6/mm^3,[2],9.35 10^6/mm^3 and 8.60 10^6/mm^3 and 8.95 10^6/mm^3 (2×) and 8.88 10^6/mm^3 and 8.70 10^6/mm^3 and 8.73 10^6/mm^3 and 7.65 10^6/mm^3 and 7.80 10^6/mm^3
same,tolerability of oral treatment,[3],No C57BL/6 mouse seemed to suffer
same,harmfulness of intravenous injection,"[4]; 1 g/kg body weight, injected slowly over at least 10 minutes",not harmful
same,amount of potassium and calcium in the sera,[4]; after lethal iv injection,normal
same,sodium in the sera after injection,"[4]; after lethal iv injection, before injection 120-140",245 mmol/L
same,"numbers of blood cells (hematocrit, white blood cells etc.) in the dead animals",[4]; heart blood after lethal iv injection,halved
same,amount that can be injected intravenously without harmful effects,[4]; if injected slowly,up to 1 g ITPP per kg body weight
same,mortality,"[4]; iv, almost saturated solution 27 g/100 ml, intended 1.5 g/kg over 20 minutes, received <1.3 g/kg",Both piglets died; also recorded: killed the animals
same,right shift of the P50-value,porcine RBCs,up to 20%
